Read-outs that look alike come from different tables or passages of the source. Peptide text beside a SMILES is read from it. * marks the point of attachment. Cbz = O=C(OCc1ccccc1)*
Columns and labels:
[1] = tested on: cyclin D1 protein (Thr286 phosphorylation); assay: Western blot of cyclin D1 and p-Thr286 cyclin D1 in HA-CD1 SW480 cells treated with kinase inhibitors; assay type: cell-based, human
Protocol: Immunoblot analysis was performed. […] Asterisks indicate endogenous cyclin D1 expression. Panel B: Western blot analysis with fractionated nuclear proteins. […] Cell-cycle distribution was shown as bar graphs. Nuclear proteins were fractionated at indicated time points. […] Levels of total and phosphorylated cyclin D1 were determined.
(§1) Immunoblotting Analysis. […] SDS-PAGE was described previously (Tetsu and McCormick, 2003).
To identify the kinase responsible for cyclin D1 Thr286 phosphorylation, small molecule inhibitors of GSK3β, CDK4, and MEK were used to determine whether they were able to alter the phosphorylation and stability of ectopically expressed WT cyclin D1 protein in cultured cells (FIG. 5, Panels C and D). Ectopically expressed WT cyclin D1 protein was used to assess the stability of cyclin D1 protein. The endogenous expression was not assessed because transcription of cyclin D1 is regulated by the Ras/MAPK signaling. Therefore, endogenous expression of cyclin D1 is unable to be detected following inhibition of MAPK activities through the MEK/MAPK inhibitors or serum starvation (Tetsu et al., 2003. Cancer Cell. 3, 233-45).

GSK3α/β = assay: Phosphorylation-specific blot for GSK3α/β, SW480 cells; assay type: cell-based, human; settings: 24 hours of treatment
[2] = tested on: polyubiquitinated cyclin D1; assay: Polyubiquitination of cyclin D1, IP-immunoblot in HA-ubiquitin transfected S phase HCT 116 cells; assay type: cell-based, human
Protocol: FIG. 3 illustrates that cyclin D1 is destabilized during S phase through the ubiquitin-proteasome pathway in cancers. Panels A and B: Pulse-chase analysis of cyclin D1 protein in NIH 3T3 (Panel A) and HCT 116 (Panel B) cells. When most of the populations were in G1 phase (9 hrs for NIH3T3 and 6 hrs for HCT 116) or in S phase (21 hrs for NIH3T3 and 15 hrs for HCT 116), cells were released from quiescence and then labeled with 35^S-methionine for 1 hour. Subsequently these cells were chased with cold methionine for the indicated times and then lysed. Cyclin D1 was immunoprecipitated and then analyzed with SDS-PAGE. Autoradiography was performed. Levels of metabolically labeled-cyclin D1 were estimated by quantitative scanning using the Quantity One (Bio-Rad) software and blotted on the graph to determine the half-life of cyclin D1. Panel C: illustrates that the turnover of cyclin D1 protein is mediated by the ubiquitin-proteasome pathway. […]
To confirm that the destabilization of cyclin D1 in the S phase is related to polyubiquitination, HCT 116 colon cancer cells were transfected with (lanes 1-3) or without (lane 4) HA-tagged ubiquitin cDNA and then synchronized to the S phase (FIG. 3, Panel D). […] A group of slower migrating bands was detected by the HA antibody exclusively in the anti-cyclin D1 immunoprecipitates in the presence of ubiquitin (lane 2 and 3). […]

cyclin D1 protein [3] = assay: Pulse-chase analysis of cyclin D1 protein in HCT 116 cells; assay type: cell-based, human; settings: exponentially growing HCT 116; 10 μM U0126 30 minutes
Protocol: (§2) FIG. 11 illustrates that ERK/MAPK is identified as the major kinase that is responsible for the stability of cyclin D1 protein. Panels A-F: Pulse-chase analysis of cyclin D1 protein in HCT 116 cells after exposure to the MEK inhibitor U0126 (A-C) or the GSK3 inhibitor BIO (D-F). Exponentially growing HCT 116 cells were treated with either DMSO or 10 μM of U0126 (A-C) for 30 minutes, or DMSO or 5 μM of BIO (D-F) for 24 hours. Panels A and D: Cells were pulse-labeled with ^35S-methionine for 1 hour. Subsequently these cells were chased with cold methionine for the indicated times, and then lysed respectively. Cyclin D1 was immunoprecipitated and then analyzed with SDS-PAGE. Autoradiography was performed. Levels of metabolically labeled-cyclin D1 were estimated by quantitative scanning using the Quantity One (Bio-Rad) software and blotted on the graph to determine the half-life of cyclin D1. […]
FIG. 18 illustrates that knockdown of FBXW8, or its partner CUL1 or CUL7 expression through siRNA stabilizes cyclin D1 expression in HCT 116 colon cancer cells. […] Cyclin D1 was immunoprecipitated and then analyzed with SDS-PAGE. Levels of metabolically labeled-cyclin D1 were estimated by quantitative scanning using the Quantity One software (Bio-Rad) and blotted on the graph to determine the half-life of cyclin D1 (D).
Pulse-Chase Analysis. […] Cyclin D1 was immunoprecipitated and then analyzed with SDS-PAGE. […]

MEK/MAPK [4] = assay: Western blot of phosphorylated ERK (pERK) in HCT 116 cells; assay type: cell-based, human
Protocol: as §2, with “D1. Panels B and E: Western blot analysis. The membrane was blotted with a cyclin D1 Thr286 phosphorylation specific (pThr286), total cyclin D1, a phosphorylation specific ERK, and total ERK antibodies (B), or a pThr286, cyclin D1, a GSKα/β phosphorylation specific, and GSK3β antibodies (E). Panels C and F: Cell cycle distributions were shown.” for “D1.”

[5] = tested on: HCT 116 colon cancer cells; assay: Flow-cytometric cell cycle analysis, HCT 116 cells; assay type: cell-based, human; settings: U0126 30 minutes
Protocol: Cell cycle analysis was carried out as described previously (Tetsu et al. (1999) Nature 398: 422-6; Tetsu et al. (2003) Cancer Cell 3: 233-45.

[6] = tested on: cyclin D1 protein (Thr286 phosphorylation); assay: Western blot of total cyclin D1 and pThr286 in HCT 116 cells after U0126 or GSK3 inhibitor; assay type: cell-based, human
Protocol: FIG. 11 illustrates that ERK/MAPK is identified as the major kinase that is responsible for the stability of cyclin D1 protein. Panels A-F: Pulse-chase analysis of cyclin D1 protein in HCT 116 cells after exposure to the MEK inhibitor U0126 (A-C) or the GSK3 inhibitor BIO (D-F). Exponentially growing HCT 116 cells were treated with either DMSO or 10 μM of U0126 (A-C) for 30 minutes, or DMSO or 5 μM of BIO (D-F) for 24 hours. Panels A and D: Cells were pulse-labeled with ^35S-methionine for 1 hour. Subsequently these cells were chased with cold methionine for the indicated times, and then lysed respectively. Cyclin D1 was immunoprecipitated and then analyzed with SDS-PAGE. Autoradiography was performed. Levels of metabolically labeled-cyclin D1 were estimated by quantitative scanning using the Quantity One (Bio-Rad) software and blotted on the graph to determine the half-life of cyclin D1. Panels B and E: Western blot analysis. The membrane was blotted with a cyclin D1 Thr286 phosphorylation specific (pThr286), total cyclin D1, a phosphorylation specific ERK, and total ERK antibodies (B), or a pThr286, cyclin D1, a GSKα/β phosphorylation specific, and GSK3β antibodies (E). Panels C and F: Cell cycle distributions were shown. Panel G: Western blot analysis following transfection of various forms of HA-tagged cyclin D1 expression vectors in both NIH 3T3 mouse fibroblast (left) and HCT 116 colon cancer (right) cells. In lane 5 and 10, cells were treated with 5 μM of BIO for further 24 hours following transfection of the ΔD CD1 mutant.
as §1
To determine the contribution of ERK/MAPK to the stability of cyclin D1 in cancer cells, MAPK activity was inhibited with the MEK inhibitor U0126 (Favata et al., 1998. J Bio Chem. 273, 18623-32; Davies et al., 2000. Biochem J. 351, 95-105). Exponentially growing HCT 116 colon cancer cells were treated with U0126 for 30 minutes (FIG. 11, Panels A-C).
In contrast, no effect on phosphorylation status and stability of cyclin D1 protein through inhibition of GSK3α/β ([…], Panels D-F) were detected. […] Cycling HCT 116 colon cancer cells were treated with BIO for 24 hours (FIG. 11, Panels D-F). A phosphorylation specific antibody to GSK3α and β was used to measure their endogenous activities because phosphorylations of GSK3α at Tyr279 and GSK3β at Tyr216 are intramolecular autophosphorylation events in the cells. Thus, phosphorylation status reflects their kinase activities (Cole et al., 2004. Biochem J. 377, 249-55).

MEK/MAPK [7] = tested on: MEK/MAPK
Protocol: Immunoblot analysis was performed. […] Panels C and D: HA-WT CD1 (D) or Panel E: HA-CD1 T286A ectopically expressing SW480 cells were treated with highly specific small molecule inhibitors for GSK3β CDK4 and MEK. LiCl and BIO, AG12275, and U0126 were used for GSK, CDK4 and MEK/MAPK inhibitions respectively. Twenty-four hours after the treatment, cells were harvested and western-blot analyses were performed with a cyclin D1 and the p-Thr286 cyclin D1 antibodies. The phosphorylated cyclin D1 expression was magnified and normalized to its total (phosphorylated plus non-phosphorylated protein) expression and shown in the graphs in Panel C. Inhibition of the kinase activities by drugs was assessed using phosphorylation-specific antibodies for GSK3α/β, Rb and ERK1/2 on the same membrane respectively. […] HA-WT CD1 SW480 cells were treated with combining U0126 with LiCl.
After 24 hours of treatment with these highly specific small molecule inhibitors, expression levels of cyclin D1 and its phosphorylated form were analyzed (FIG. 5, Panel C). Levels of phosphorylated cyclin D1 were estimated by quantitative scanning with Quantity One (Bio Rad) software and were normalized to levels of total cyclin D1 protein (FIG. 5, Panel C bottom graphs).
Cells were next treated with the MEK inhibitor U0126.

[8] = tested on: cyclin D1 / E3 ligase FBXW8; settings: HCT 116 transfected with FBXW8, cyclin D1 and CDK4; 10 μM U0126 30 minutes
Protocol: Panel D: Immunoprecipitated-immunoblotting analysis. […] Panels D and E: Exponentially growing HCT 116 colon cancer cells were transiently transfected with Flag epitope-tagged FBXW8 DNA plasmid together with HA-tagged cyclin D1 and CDK4 expression vectors. Twenty-four hours later cells were treated with DMSO (−) or 10 μM of U0126 (+) for 30 minutes and then harvested. Cell lysates were immunoprecipitated with either a Flag (FBXW8) antibody or a control IgG and immunoblotted with cyclin D1, pThr286, and Flag (FBXW8) antibodies (left panel). Western blot for input controls (lysate) were provided (right panel).
Immunoprecipitation and Immunoblotting Analysis. […] Following antibodies were used for immunoprecipitation; Flag (M2 Agarose-conjugated, Sigma), cyclin D1 (A-12, Agarose-conjugated, Santa Cruz), CDK4 (H-303 or C-22 Agarose-conjugated, Santa Cruz), CDK6 (C-21, Santa Cruz), FLA (M2 Agarose-conjugated, Sigma), and HA (Y-11 Agarose-conjugated, Santa Cruz). Immunoblotting was performed using antibodies described above.
FBXW8 DNA plasmid together with cyclin D1 and CDK4 expression vectors were transiently transfected in exponentially growing HCT 116 colon cancer cells. After 24 hours, cells were treated with U0126 to inhibit MEK/MAPK signaling for 30 minutes. Subsequently cells were collected and an immunoprecipitated-immunoblotting analysis was performed (FIG. 12, Panels D and E).

cyclin D1 protein [9] = settings: HA-WT cyclin D1 SW480 cells; U0126 24 hours, then CHX, chased 3 hours
Protocol: FIG. 8 illustrates that MAPK regulates stability and relocalization of cyclin D1 protein. Panels A and B: Half-life analysis of HA-CD1 WT after exposure to U0126. Panel A: Exponentially growing HA-WT cyclin D1 SW480 cells were exposed to U0126 for 24 hours and subsequently treated with CHX and chased for 3 hours. Cells were harvested at different times and protein blot was performed (upper panel). Cyclin D1 expression was quantified and the half-life was calculated respectively. Panel B: Western blot analysis.
Immunoblotting Analysis. […] NE-PER nuclear and cytoplasmic extraction reagents (Pierce) were used for nuclear and cytoplasmic fractionation. […] Western blots were developed by enhanced chemiluminescence (Amersham or Upstate). […] Intensities of bands were quantified using Gel Doc 600 and Quantity One software (BioRad).
Exponentially growing HA-WT cyclin D1 SW480 cells were exposed to U0126 for 24 hours and subsequently treated with CHX and chased for 3 hours. […] Cyclin D1 expression was quantified and the half-life was calculated (FIG. 8, Panel A bottom graph).

cyclin D1 protein [10] = assay: Western blot of cyclin D1 with or without MG132 during cell cycle progression, WI-38 cells; assay type: cell-based, human; settings: MG132 2 hours
Protocol: (§3) FIG. 3 illustrates that cyclin D1 is destabilized during S phase through the ubiquitin-proteasome pathway in cancers. Panels A and B: Pulse-chase analysis of cyclin D1 protein in NIH 3T3 (Panel A) and HCT 116 (Panel B) cells. When most of the populations were in G1 phase (9 hrs for NIH3T3 and 6 hrs for HCT 116) or in S phase (21 hrs for NIH3T3 and 15 hrs for HCT 116), cells were released from quiescence and then labeled with 35^S-methionine for 1 hour. Subsequently these cells were chased with cold methionine for the indicated times and then lysed. Cyclin D1 was immunoprecipitated and then analyzed with SDS-PAGE. Autoradiography was performed. Levels of metabolically labeled-cyclin D1 were estimated by quantitative scanning using the Quantity One (Bio-Rad) software and blotted on the graph to determine the half-life of cyclin D1. Panel C: illustrates that the turnover of cyclin D1 protein is mediated by the ubiquitin-proteasome pathway. […] Western blot was performed with cyclin D1 and p-actin antibodies. Panel D: Polyubiquitination of cyclin D1 protein. HCT 116 colon cancer cells were transfected with (lane 1-3) or without (lane 4) ubiquitin cDNA and then synchronized to S phase through the sequential manipulation of serum starvation and stimulation. Cells were treated with (lane 3 and 4) or without (lane 1 and 2) 25 μM MG132 for an hour. […]

cyclin D1 protein [11] = assay: Western blot of cyclin D1 with or without MG132 during cell cycle progression, HCT 116 cells; assay type: cell-based, human; settings: MG132 2 hours
Protocol: as §3

cyclin D1 protein [12] = assay: Western blot of cyclin D1 with or without MG132 during cell cycle progression, NIH 3T3 cells; assay type: cell-based, mouse
Protocol: HCT 116 and NIH 3T3 cells were treated with the proteasome inhibitor MG132 at each time point during cell cycle progression (FIG. 3, Panel C).

MAPK (ERK1/2) = assay: Western blot after 4-HT treatment, ΔB-Raf:ER^TAM NIH 3T3 cells; assay type: cell-based, mouse; settings: 10 nM 4-HT
Protocol: (§4) Panel B: Western blot analysis. […] Panel C: Western blot analysis after 4-HT treatment. […] A half-life of cyclin D1 protein was calculated.
(§5) In order to investigate whether this was due to accelerated turnover of the cyclin D1 protein, the half-life of endogenous expression of cyclin D1 protein (FIG. 8, Panel E) was assessed.

cyclin D1 protein [13] = assay: Cyclin D1 expression and half-life after 4-HT in ΔB-Raf:ER^TAM NIH 3T3 cells; assay type: cell-based, mouse
Protocol: as §4, §5

[14] = HCT 116 transfected with FBXW8, cyclin D1 and CDK4, 10 μM U0126 30 minutes
[15] = exponentially growing HCT 116, U0126 30 minutes
[16] = HA-WT CD1 SW480 cells, U0126 24 hours

## [Cl-].[Li+] [LiCl]
[1]; HA-WT CD1 SW480 cells, 24 hours of treatment
  total cyclin D1 expression and its phosphorylated protein: no significant difference
[1]; HA-WT cyclin D1 SW480 cells, U0126 combined with LiCl
  effect of adding LiCl to U0126 on cyclin D1: little enhancement
GSK3α/β
  phosphorylated forms of GSK3α/β: disappeared

## CCC(=C/[C@H](C)C/C=C/C(C)=C/[C@@H](C)C(=O)[C@@H](C)[C@H](O)[C@@H](C)C/C(C)=C/C(=O)O)/C=C/[C@@H]1OC(=O)C=C[C@@H]1C [Leptomycin B]
[2]; LMB 3 hours, then MG132 for an hour, nuclear fraction
  polyubiquitinated cyclin D1 bands in the nucleus: did not enhance these bands significantly

## N#CC(=C(/N)Sc1ccccc1N)/C(C#N)=C(\N)Sc1ccccc1N [U0126]
Cyclin D1 protein [3]
  half-life of cyclin D1 protein: 54.6 min
MEK/MAPK [4]; [14]
  MAPK activities (pERK): significantly inhibited
MEK/MAPK [4]; [15]
  phosphorylated form of ERK (pERK): significantly depleted
[1]; HA-CD1 T286A SW480 cells, U0126
  ectopic expression of cyclin D1 T286A protein: did not accumulate
[1]; [16]
  cyclin D1 expression (ectopic HA-WT): dramatic induction
  ratio of phosphorylated cyclin D1 at Thr286 to total cyclin D1: significant reduction
[5]
  cell cycle profile: without affecting
[6]; [14]
  phosphorylation status of cyclin D1 at Thr286 (pThr286): significantly inhibited
[6]; [15]
  level of total cyclin D1: not changed
  phosphorylation of cyclin D1 at Thr286 (pThr286): dramatic reduction
MEK/MAPK [7]; HA-WT cyclin D1 SW480 cells, U0126 24 hours (FIG. 8 Panel B)
  MAPK activity: completely inhibited
MEK/MAPK [7]; SW480 cells, 24 hours after exposure
  phosphorylated ERK: disappeared
[8]
  association of cyclin D1 with the E3 ligase FBXW8: significant decrease
Cyclin D1 protein [9]
  half-life of cyclin D1 protein (T1/2): 60.3 min

## CC(C)C[C@@H](C=O)NC(=O)[C@H](CC(C)C)NC(=O)[C@H](CC(C)C)NC(=O)OCc1ccccc1 [MG132] (Cbz-Leu-Leu-Leu-aldehyde)
Cyclin D1 protein [10]
  cyclin D1 protein accumulation, G1 versus S phase: no remarkable different
[2]; 25 μM MG132 for an hour
  reduced mobility (polyubiquitinated cyclin D1) bands: enhanced further
Cyclin D1 protein [11]
  cyclin D1 protein accumulation during G1 phase: no significant accumulation
  cyclin D1 protein accumulation in S phase: accumulated significantly
Cyclin D1 protein [12]
  cyclin D1 protein accumulation, G1 versus S phase: no difference between the G1 and S phase

## 4-hydroxy-tamoxifen [4-HT]
MAPK (ERK1/2)
  MAPK activation: MAPK activation
Cyclin D1 protein [13]; exponentially growing cells, 10 nM 4-HT, then CHX, chased 3 hours
  half-life of cyclin D1 protein (T1/2): 20.6 min
Cyclin D1 protein [13]; serum-stimulated from quiescence in the presence of 4-HT
  cyclin D1 expression in S phase: dramatic reduction
